pEC50: −log10 of the molar value. Read-outs that look alike come from different tables or passages of the source.
How the values were obtained:
C56BL/6 mice [1] = experiment: Conditioned place preference; conditions: mouse, in vivo
Description: To determine if ‘4042 was inherently rewarding or aversive we used the conditioned place paradigm as described. Briefly, mice were first habituated to the test apparatus, twice, and their preference for each chamber recorded for 30 minutes (Pretest). Two conditioning days followed in which mice received the vehicle control or the compound, and 30 minutes later restricted for 30 minutes in the preferred or non-preferred chamber, respectively. On day 5 (Test day), mice were allowed to roam freely between the 3 chambers of the apparatus and their preference for each chamber recorded for 30 minutes. To calculate the CPP score, we subtracted the time spent in each chamber of the box on the Pretest day from that of the Test day (CPP score = Test - Pretest).

hCB1 = hCB1 (Homo sapiens, UniProt P21554); experiment: bioSens-All ebBRET effector biosensor signaling profiling, HEK293; type: cell-based; set-up: host or cells: HEK293 (HEK293SL clone), transient; conditions: for RE, relative efficacy: versus CP-55,940
hCB1, sequence (P21554 whole entry): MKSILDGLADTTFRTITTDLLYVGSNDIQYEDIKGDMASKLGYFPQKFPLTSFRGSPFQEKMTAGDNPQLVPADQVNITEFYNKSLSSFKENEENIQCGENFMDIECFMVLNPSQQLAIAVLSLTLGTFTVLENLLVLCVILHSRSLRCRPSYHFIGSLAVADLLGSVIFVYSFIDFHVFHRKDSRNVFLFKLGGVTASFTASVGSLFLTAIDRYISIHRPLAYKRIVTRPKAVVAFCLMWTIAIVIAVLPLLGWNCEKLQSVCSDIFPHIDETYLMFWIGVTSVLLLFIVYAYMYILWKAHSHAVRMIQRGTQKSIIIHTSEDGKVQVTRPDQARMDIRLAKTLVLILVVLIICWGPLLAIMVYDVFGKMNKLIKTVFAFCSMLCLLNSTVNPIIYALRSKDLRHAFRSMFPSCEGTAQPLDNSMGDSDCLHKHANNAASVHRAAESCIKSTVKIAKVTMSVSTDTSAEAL

hCB2 = hCB2 (Homo sapiens, UniProt P34972); experiment: as above; type: cell-based; set-up: host or cells: HEK293 (HEK293SL clone), transient; conditions: for RE, relative efficacy: versus CP-55,940
hCB2, sequence (P34972 whole entry): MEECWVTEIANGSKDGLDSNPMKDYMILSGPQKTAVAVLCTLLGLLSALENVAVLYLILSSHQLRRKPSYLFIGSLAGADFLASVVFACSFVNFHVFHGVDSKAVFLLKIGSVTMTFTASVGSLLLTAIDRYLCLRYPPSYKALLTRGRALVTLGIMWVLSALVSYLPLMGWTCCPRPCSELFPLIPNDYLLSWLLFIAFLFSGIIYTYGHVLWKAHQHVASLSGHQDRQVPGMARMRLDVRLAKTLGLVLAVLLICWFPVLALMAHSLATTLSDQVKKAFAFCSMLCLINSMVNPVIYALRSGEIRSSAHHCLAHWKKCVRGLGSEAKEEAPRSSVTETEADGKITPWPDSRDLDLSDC

C56BL/6 mice [2] = experiment: Body temperature by telemetric probe; type: in vivo, mouse; conditions: body temperature over 150 minutes
Description: Body temperature (BT) was measured using a telemetric probe device (HD-X10; Data Science International). Briefly, under anesthesia, the probe device was placed in the mouse abdomen and a subcutaneous tunnel was created from the neck to the abdominal skin, through which a catheter (connected to the probe) was pulled and then inserted into the left carotid artery. Three weeks later, the implanted mice were singly housed in a cage that was placed on top of the DSI receiver (for probe signal detection). […] Data were acquired using the Ponemah Telemetry acquisition software (DSI) and percent changes were presented relative to each mouse’s baseline.

[3] = HEK293, read-out: hCB1 Barr2 + GRK2 Emax [95% CI]
[4] = HEK293, read-out: hCB1 G13 Emax [95% CI]
[5] = HEK293, read-out: hCB1 G15 Emax [95% CI]
[6] = HEK293, read-out: hCB1 Gi1 Emax [95% CI]
[7] = HEK293, read-out: hCB1 Gi2 Emax [95% CI]
[8] = HEK293, read-out: hCB1 GoB Emax [95% CI]
[9] = HEK293, read-out: hCB1 Gz Emax [95% CI]
[10] = hCB1 Barr2 + GRK2 pEC50 [95% CI], ßarrestin-2 PM recruitment sensor with GRK2
[11] = hCB1 G13 EC50 [95% CI], G13 sensor
[12] = hCB1 G15 pEC50 [95% CI], G15 sensor
[13] = hCB1 Gi1 EC50 [95% CI], Gi1 sensor
[14] = hCB1 Gi2 EC50 [95% CI], Gi2 sensor
[15] = hCB1 GoB EC50 [95% CI], GoB sensor
[16] = hCB1 GoB pEC50 [95% CI], GoB sensor
[17] = hCB1 Gz pEC50 [95% CI], Gz sensor
[18] = HEK293, read-out: hCB2 Barr2 + GRK2 Emax [95% CI]
[19] = HEK293, read-out: hCB2 Gi1 Emax [95% CI]
[20] = HEK293, read-out: hCB2 Gi2 Emax [95% CI]
[21] = HEK293, read-out: hCB2 GoB Emax [95% CI]
[22] = HEK293, read-out: hCB2 Gz Emax [95% CI]
[23] = hCB1 Gi1 pEC50 [95% CI], Gi1 sensor

## COC(=O)C(C)(NC(=O)c1cc(C)n(-c2cccc(C(F)(F)F)c2)n1)c1cccs1 (stereo not drawn) [‘4042]
C56BL/6 mice [1]
  conditioned place preference: does not induce preference
hCB1; [3]
  Emax: 72%
hCB1; [4]
  Emax: 64%
hCB1; [5]
  Emax: 105%
hCB1; [6]
  Emax: 102%
hCB1; [7]
  Emax: 101%
hCB1; [8]
  Emax: 103%
hCB1; [9]
  Emax: 97%
hCB1; [10]
  pEC50: 8.44
hCB1; hCB1 G13
  RE, relative efficacy: 0.91
hCB1; [11]
  pEC50: 8.68
hCB1; hCB1 G13 pEC50 [95% CI], G13 sensor
  pEC50: 8.69
hCB1; hCB1 G15
  RE, relative efficacy: 0.74
hCB1; [12]
  pEC50: 9.43
hCB1; hCB1 Gi1
  RE, relative efficacy: 0.97
hCB1; [13]
  pEC50: 9.32
hCB1; hCB1 Gi2
  RE, relative efficacy: 1.01
hCB1; [14]
  pEC50: 9.25
hCB1; [15]
  pEC50: 9.19
hCB1; [16]
  pEC50: 9.20
hCB1; hCB1 GoB
  RE, relative efficacy: 1.04
hCB1; [17]
  pEC50: 9.37
hCB1; hCB1 Gz
  RE, relative efficacy: 0.62
hCB1; hCB1 ßarr2 + GRK2
  RE, relative efficacy: 0.81
hCB2; [18]
  Emax: 33%
hCB2; [19]
  Emax: 82%
hCB2; [20]
  Emax: 70%
hCB2; [21]
  Emax: 61%
hCB2; [22]
  Emax: 56%
hCB2; hCB2 Barr2 + GRK2 EC50 [95% CI]
  pEC50: 8.26
hCB2; hCB2 Gi1
  RE, relative efficacy: 0.63
hCB2; hCB2 Gi1 EC50 [95% CI]
  pEC50: 8.57
hCB2; hCB2 Gi1 pEC50 [95% CI]
  pEC50: 8.58
hCB2; hCB2 Gi2
  RE, relative efficacy: 0.59
hCB2; hCB2 Gi2 pEC50 [95% CI]
  pEC50: 8.90
hCB2; hCB2 GoB pEC50 [95% CI]
  pEC50: 8.60
hCB2; hCB2 GoB
  RE, relative efficacy: 0.47
hCB2; hCB2 Gz EC50 [95% CI]
  pEC50: 8.87
hCB2; hCB2 Gz
  RE, relative efficacy: 0.38
hCB2; hCB2 ßarr2 + GRK2
  RE, relative efficacy: 0.82
C56BL/6 mice [2]
  hypothermia compared to baseline and vehicle: induced hypothermia

## COC(=O)[C@@](C)(NC(=O)c1cc(C)n(-c2cccc(C(F)(F)F)c2)n1)c1cccs1 [‘1350]
hCB1; [3]
  Emax: 63%
hCB1; [4]
  Emax: 56%
hCB1; [5]
  Emax: 99%
hCB1; [6]
  Emax: 92%
hCB1; [7]
  Emax: 95%
hCB1; [8]
  Emax: 98%
hCB1; [9]
  Emax: 94%
hCB1; [10]
  pEC50: 8.66
hCB1; hCB1 G13
  RE, relative efficacy: 1.64
hCB1; [11]
  pEC50: 9.08
hCB1; hCB1 G15
  RE, relative efficacy: 1.14
hCB1; [12]
  pEC50: 9.66
hCB1; hCB1 Gi1
  RE, relative efficacy: 1.98
hCB1; [23]
  pEC50: 9.63
hCB1; hCB1 Gi2
  RE, relative efficacy: 1.89
hCB1; [14]
  pEC50: 9.55
hCB1; hCB1 Gi2 pEC50 [95% CI], Gi2 sensor
  pEC50: 9.54
hCB1; [16]
  pEC50: 9.54
hCB1; hCB1 GoB
  RE, relative efficacy: 2.24
hCB1; [17]
  pEC50: 9.46
hCB1; hCB1 Gz
  RE, relative efficacy: 0.77
hCB1; hCB1 ßarr2 + GRK2
  RE, relative efficacy: 1.16
hCB2; [18]
  Emax: 30%
hCB2; [19]
  Emax: 74%
hCB2; [20]
  Emax: 61%
hCB2; [21]
  Emax: 59%
hCB2; [22]
  Emax: 52%
hCB2; hCB2 Barr2 + GRK2 pEC50 [95% CI]
  pEC50: 8.38
hCB2; hCB2 Gi1
  RE, relative efficacy: 0.29
hCB2; hCB2 Gi1 EC50 [95% CI]
  pEC50: 8.45
hCB2; hCB2 Gi2
  RE, relative efficacy: 0.40
hCB2; hCB2 Gi2 pEC50 [95% CI]
  pEC50: 8.79
hCB2; hCB2 GoB pEC50 [95% CI]
  pEC50: 8.58
hCB2; hCB2 GoB
  RE, relative efficacy: 0.40
hCB2; hCB2 Gz EC50 [95% CI]
  pEC50: 8.59
hCB2; hCB2 Gz pEC50 [95% CI]
  pEC50: 8.58
hCB2; hCB2 Gz
  RE, relative efficacy: 0.22
hCB2; hCB2 ßarr2 + GRK2
  RE, relative efficacy: 0.92
C56BL/6 mice [2]
  hypothermia compared to baseline and vehicle: induced hypothermia

## CCCCCCC(C)(C)c1ccc([C@@H]2C[C@H](O)CC[C@H]2CCCO)c(O)c1 [CP-55,940, reference compound]
C56BL/6 mice [1]
  conditioned place preference: may actually induce some aversion
hCB1; HEK293, read-out: hCB1 Barr2 + GRK2 Emax [95% CI], ßarrestin-2 sensor with GRK2, normalized to CP-55,940
  Emax: 89%
hCB1; HEK293, read-out: hCB1 G13 Emax [95% CI], G13 sensor, normalized to CP-55,940
  Emax: 100%
hCB1; HEK293, read-out: hCB1 G15 Emax [95% CI], G15 sensor, normalized to CP-55,940
  Emax: 100%
hCB1; HEK293, read-out: hCB1 Gi1 Emax [95% CI], Gi1 sensor, normalized to CP-55,940
  Emax: 100%
hCB1; HEK293, read-out: hCB1 Gi2 Emax [95% CI], Gi2 sensor, normalized to CP-55,940
  Emax: 100%
hCB1; HEK293, read-out: hCB1 GoB Emax [95% CI], GoB sensor, normalized to CP-55,940
  Emax: 100%
hCB2; [18]
  Emax: 100%
hCB2; [19]
  Emax: 100%
hCB2; [20]
  Emax: 100%
hCB2; [21]
  Emax: 100%
C56BL/6 mice [2]
  hypothermia compared to baseline and vehicle: induced hypothermia

## COC(=O)C(NC(=O)c1cc(C)n(-c2cccc(C(F)(F)F)c2)n1)c1cccs1 (stereo not drawn) [‘60154]
hCB1; [6]
  Emax: 92%
hCB1; [8]
  Emax: 100%
hCB1; [9]
  Emax: 121%
hCB1; [13]
  pEC50: 8.60
hCB1; [23]
  pEC50: 7.60
hCB1; [15]
  pEC50: 7.74
hCB1; hCB1 Gz EC50 [95% CI], Gz sensor
  pEC50: 7.76

From doi:10.1101/2023.02.27.530254, “Large library docking for cannabinoid-1 receptor agonists with reduced side effects” (bioRxiv, 2024)
